The term solubility denotes how much of the substance goes into solution per volume. Read a high solubility as much dissolved substance.

The text below walks through data of ChEMBL document CHEMBL4177630, “Discovery and evaluation of Cav3.2-selective T-type calcium channel blockers” (Bioorg Med Chem Lett, 2017).

Series [1] can be described thus: Aqueous solubility of the compound at pH 7. The series is classed as physicochemical.
The nature of series [2]: Plasma concentration in Wistar rat at 100 mg/kg, po measured after 1 hr. The series is classed as ADME, organism-based.
A short description of series [3]: Drug level in Wistar rat CSF at 100 mg/kg, po measured after 1 hr. The series is classed as ADME, organism-based, Cerebrospinal fluid. Conditions: read-out: Drug uptake.
Series [4] can be described thus: Fraction unbound in Wistar rat plasma at 100 mg/kg, po measured after 1 hr. It is filed as ADME, organism-based. The note with it: in vivo.
Series [5] can be described thus: Intrinsic clearance in rat liver microsomes. The series is classed as ADME, microsome. The note with it: read-out: CLH.
The nature of series [6]: Drug level in Wistar rat brain at 100 mg/kg, po measured after 1 hr. It is filed as ADME, organism-based. Conditions: read-out: Drug uptake.
A short description of series [7]: Drug level in Wistar rat brain at 10 mg/kg, po measured after 1 hr. Conditions: read-out: Drug uptake. The series is classed as ADME, organism-based.
Series [8] is described as follows: Drug level in Wistar rat CSF at 10 mg/kg, po measured after 1 hr. It is filed as ADME, organism-based, Cerebrospinal fluid. The note with it: read-out: Drug uptake.
The nature of series [9]: Fraction unbound in Wistar rat plasma at 10 mg/kg, po measured after 1 hr. It is filed as ADME, organism-based. The note with it: in vivo.
Series [10] is described as follows: Plasma concentration in Wistar rat at 10 mg/kg, po measured after 1 hr. It is filed as ADME, organism-based.

Molecules are shown by their SMILES. Converted amounts (≈) assume the structure as drawn. A value given as a limit tells only on which side of the number the result lay.

As for `CC(C)OCc1ccccc1CNC(=O)c1c2c(c(Cl)n1C)CC(C)(C)CC2`, the solubility in [1] is < 1 µg/mL. The concentration at 1 h is 397 nM in series [2], < 0.7 nM in [3] and 436 nM in series [6]. Besides, the “Cp(f)” value in [4] was < 0.4 nM. The microsomal CLint in [5] is > 1250 µL/min/mg.
Take `Cn1c(Cl)c2c(c1C(=O)NCc1ccncc1OCC(F)(F)F)CCC(C)(C)C2`: the solubility in series [1] worked out at 1 µg/mL (≈ 2.33 µM). For the same molecule, the results for the concentration at 1 h in series [2], in series [3] and in series [6] were 5210 nM, 23 nM and 12100 nM, respectively. Moreover, in series [4], the “Cp(f)” value stood at 5.2 nM. In [5], the microsomal CLint is 645 µL/min/mg.
Regarding `Cn1c(Cl)c2c(c1C(=O)NCc1ncccc1N1CC[C@H](F)C1)CCC(C)(C)C2`, the solubility in series [1] is < 1 µg/mL.
As to `Cn1c(Cl)c2c(c1C(=O)NCc1cccnc1OCC(F)(F)F)CCC(C)(C)C2`, the concentration at 1 h in series [7] stood at 4720 nM; in series [8], 6 nM; in [10], 353 nM. In series [1], the solubility was < 1 µg/mL. Besides, in [9], the “Cp(f)” value is reported as < 0.35 nM. For the same molecule, the microsomal CLint in [5] amounted to 420 µL/min/mg.
Turning to `Cc1onc(CNC(=O)c2c3c(c(Cl)n2C)CC(C)(C)CC3)c1Cn1cccn1`, the solubility in series [1] amounted to 7 µg/mL (≈ 16.8 µM). Also, the concentration at 1 h in [2] amounted to 530 nM; in [3] it was 17 nM; in [6] it was 1020 nM. Moreover, the “Cp(f)” value in series [4] is listed as 1.6 nM. Besides, the microsomal CLint in series [5] is > 1250 µL/min/mg.
